Patent US20150105252A1, “SUBSTITUTED PYRAZOLES AS HERBICIDES” (E I DU PONT DE NEMOURS AND COMPANY, priority 2013, published 2015)

Assays:
waterhemp = assay: Test C preemergence; assay type: in vivo, Amaranthus rudis; conditions: for Waterhemp plant response rating: preemergence
Source text: (§1) Seeds of plant species selected from blackgrass (Alopecurus myosuroides), ryegrass, Italian (Italian ryegrass, Lolium multiflorum), wheat (winter wheat, Triticum aestivum), galium (catchweed bedstraw, Galium aparine), corn (Zea mays), crabgrass, large (large crabgrass, Digitaria sanguinalis), foxtail, giant (giant foxtail, Setaria faberii), johnsongrass (Sorghum halepense), lambsquarters (Chenopodium album), morningglory (Ipomoea coccinea), nutsedge, yellow (yellow nutsedge, Cyperus esculentus), pigweed (redroot pigweed, Amaranthus retroflexus), ragweed (common ragweed, Ambrosia elation), soybean (Glycine max), barnyardgrass (Echinochloa crus-galli), oilseed rape (Brassica napus), waterhemp (common waterhemp, Amaranthus rudis), oat, wild (wild oat, Avena fatua), kochia (Kochia scoparia), Surinam grass (Brachiaria decumbens), foxtail, green (green foxtail, Setaria viridis), goosegrass (Eleusine indica), bromegrass, downy (downy bromegrass, Bromus tectorum), nightshade (eastern black nightshade, Solanum ptycanthum), cocklebur (common cocklebur, Xanthium strumarium), cupgrass, woolly (woolly cupgrass, Eriochloa villosa), bermudagrass (Cynodon dactylon), sunflower, (common oilseed sunflower, Helianthus annuus), Russian thistle (Salsola kali), and velvetleaf (Abutilon theophrasti) were planted into a blend of loam soil and sand and treated preemergence with test chemicals formulated in a non-phytotoxic solvent mixture which included a surfactant.
(§2) At the same time, plants selected from these crop and weed species and also chickweed (common chickweed, Stellaria media), canarygrass (littleseed canarygrass, Phalaris minor), and deadnettle (henbit deadnettle, Lamium amplexicaule), were planted in pots containing Redi-Earth® planting medium (Scotts Company, 14111 Scottslawn Road, Marysville, Ohio 43041) comprising spaghnum peat moss, vermiculite, wetting agent and starter nutrients and treated with postemergence applications of test chemicals formulated in the same manner. Plants ranged in height from 2 to 18 cm (1- to 4-leaf stage) for postemergence treatments. Treated plants and controls were maintained in a greenhouse for 13 to 15 days, after which time all species were compared to controls and visually evaluated. Plant response ratings, summarized in Table C, are based on a scale of 0 to 100 where 0 is no effect and 100 is complete control. A dash (-) response means no test result.

corn [1] = assay: Test A postemergence; assay type: in vivo, Zea mays
Procedure, shortened: (§3)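 Pre- and postemergence greenhouse test; loam+sand; cpd in non-phytotox. solvent/surfactant; post at 1–2 leaf, 2–10 cm; visual score ~10 d, 0 = none, 100 = complete control.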

galium [2] = assay: Test C postemergence; assay type: in vivo, Galium aparine; conditions: for Galium plant response rating: scale 0 to 100
Procedure, shortened: (§4)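 Visual rating, 0–100 scale (0 no effect, 100 complete control), vs untreated controls after 13–15 d greenhouse. Pre: seeds in loam/sand, treated at sowing. Post: plants in peat-based mix, 1- to 4-leaf (2–18 cm). Solvent + surfactant formulation, non-phytotoxic.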

corn [3] = assay: Test C preemergence; assay type: in vivo, Zea mays; conditions: for Plant response rating (scale of 0 to 100), Corn: Preemergence, 250 g ai/ha
Procedure, shortened: as §4

crabgrass, large [4] = assay: Test A postemergence; assay type: in vivo, Digitaria sanguinalis
Procedure, shortened: as §3

crabgrass, large [5] = assay: Test A preemergence; assay type: in vivo, Digitaria sanguinalis
Procedure, shortened: as §3

wheat = assay: Test A preemergence; assay type: in vivo, Triticum aestivum; conditions: preemergence
Procedure, shortened: as §3

galium [6] = assay: Test C preemergence; assay type: in vivo, Galium aparine; conditions: for Plant response rating (scale of 0 to 100), Galium: Preemergence, 250 g ai/ha
Procedure, shortened: as §4

foxtail, giant [7] = assay: Test A postemergence; assay type: in vivo, Setaria faberii
Procedure, shortened: as §3

nutsedge, yellow = assay: Test C preemergence; assay type: in vivo, Cyperus esculentus; conditions: for Plant response rating (scale of 0 to 100), Nutsedge, Yellow: Preemergence, 250 g ai/ha
Procedure, shortened: as §4

barnyardgrass = assay: Test C postemergence; assay type: in vivo, Echinochloa crus-galli
Source text: as §1, §2

morningglory [8] = assay: Test A postemergence; assay type: in vivo, Ipomoea spp.
Procedure, shortened: as §3

foxtail, giant [9] = assay: Test C postemergence; assay type: in vivo, Setaria faberii; conditions: for Foxtail, Giant plant response rating: scale 0 to 100
Source text: as §1, §2

blackgrass = assay: Test C postemergence; assay type: in vivo, Alopecurus myosuroides; conditions: for Blackgrass plant response rating: scale 0 to 100
Source text: as §1, §2

morningglory [10] = assay: Test C postemergence; assay type: in vivo, Ipomoea coccinea; conditions: for Morningglory plant response rating: scale 0 to 100
Procedure, shortened: as §4

ryegrass, Italian = assay: Test C preemergence; assay type: in vivo, Lolium multiflorum
Procedure, shortened: as §4

[11] = Postemergence, 500 g ai/ha, visual rating after approx. 10 days, 0 to 100 scale (0 no effect, 100 complete control)
[12] = postemergence, 125 g ai/ha, about 10 days, visual rating on 0 to 100 scale (0 no effect, 100 complete control)
[13] = Postemergence, 31 g ai/ha, visually evaluated after 13 to 15 days
[14] = postemergence, 125 g ai/ha, scale 0 to 100, 0 no effect, 100 complete control
[15] = preemergence, 31 g ai/ha, visual rating, scale 0 to 100 (0 no effect, 100 complete control), 13 to 15 days
[16] = preemergence, 62 g ai/ha, scale 0 to 100 (0 no effect, 100 complete control), 13 to 15 days
[17] = preemergence, 125 g ai/ha, scale 0 to 100, 0 is no effect, 100 is complete control
[18] = preemergence, 125 g ai/ha, visual injury, 0 to 100 scale, approx. 10 days
[19] = 125 g ai/ha, visual injury, 0 to 100 scale, approx. 10 days
[20] = 500 g ai/ha, visual injury after approx. 10 days, 0 to 100 scale (0 no effect, 100 complete control)
[21] = postemergence, 250 g ai/ha, scale 0 to 100 (0 no effect, 100 complete control)
[22] = preemergence, 31 g ai/ha, scale 0 to 100 (0 no effect, 100 complete control), 13 to 15 days
[23] = preemergence, 62 g ai/ha, 13 to 15 days, scale 0 to 100, 0 = no effect, 100 = complete control

## CCc1cc(-c2ccc(C(F)(F)F)cc2)nn1Cc1ccnc(C(F)(F)F)c1 [Compound 110]
waterhemp; Preemergence, 250 g ai/ha
  Plant response rating (scale of 0 to 100), Waterhemp: 100
waterhemp; 31 g ai/ha, visual rating, scale 0 to 100 (0 no effect, 100 complete control), 13 to 15 days
  Waterhemp plant response rating: 100
waterhemp; 62 g ai/ha, scale 0 to 100 (0 no effect, 100 complete control), 13 to 15 days
  Waterhemp plant response rating: 100
waterhemp; 125 g ai/ha, scale 0 to 100, 0 is no effect, 100 is complete control
  Waterhemp plant response rating: 100
Corn [1]; [11]
  Corn plant response rating: 90
Corn [1]; [12]
  Corn plant response rating: 80
Galium [2]; [13]
  Plant response rating (scale of 0 to 100 where 0 is no effect and 100 is complete control), Galium: 60
Galium [2]; postemergence, 62 g ai/ha
  Galium plant response rating: 60
Galium [2]; [14]
  Plant response rating, Galium: 90
Corn [3]
  Plant response rating (scale of 0 to 100), Corn: 10
Corn [3]; [15]
  Corn plant response rating: 5
Corn [3]; [16]
  Corn plant response rating: 5
Corn [3]; [17]
  Corn plant response rating: 5
crabgrass, large [4]; [11]
  Crabgrass, Large plant response rating: 100
crabgrass, large [4]; [12]
  Crabgrass, Large plant response rating: 70
crabgrass, large [5]; [18]
  Crabgrass, Large plant response rating: 100
crabgrass, large [5]; preemergence, 500 g ai/ha, visual injury after approx. 10 days, 0 to 100 scale (0 no effect, 100 complete control)
  Crabgrass, Large plant response rating: 100
wheat; [19]
  Wheat plant response rating: 80
wheat; [20]
  Wheat plant response rating: 100
Galium [6]
  Plant response rating (scale of 0 to 100), Galium: 100
Galium [6]; [15]
  Galium plant response rating: 50
Galium [6]; [16]
  Galium plant response rating: 90
foxtail, giant [7]; [11]
  Foxtail, Giant plant response rating: 100
foxtail, giant [7]; [12]
  Foxtail, Giant plant response rating: 90
nutsedge, yellow
  Plant response rating (scale of 0 to 100), Nutsedge, Yellow: 5
nutsedge, yellow; [16]
  Nutsedge, Yellow plant response rating: 5
nutsedge, yellow; [17]
  Nutsedge, Yellow plant response rating: 5
barnyardgrass; [13]
  Plant response rating (scale of 0 to 100 where 0 is no effect and 100 is complete control), Barnyardgrass: 20
barnyardgrass; postemergence, 62 g ai/ha, scale 0 to 100
  Barnyardgrass plant response rating: 35
barnyardgrass; [21]
  Plant response rating, Barnyardgrass: 65
barnyardgrass; [14]
  Plant response rating, Barnyardgrass: 55
Morningglory [8]; [11]
  Morningglory plant response rating: 100
Morningglory [8]; [12]
  Morningglory plant response rating: 100
foxtail, giant [9]; [13]
  Plant response rating (scale of 0 to 100 where 0 is no effect and 100 is complete control), Foxtail, Giant: 35
foxtail, giant [9]; postemergence, 62 g ai/ha
  Foxtail, Giant plant response rating: 40
foxtail, giant [9]; [21]
  Plant response rating, Foxtail, Giant: 70
foxtail, giant [9]; [14]
  Plant response rating, Foxtail, Giant: 60
blackgrass; [13]
  Plant response rating (scale of 0 to 100 where 0 is no effect and 100 is complete control), Blackgrass: 30
blackgrass; postemergence, 62 g ai/ha
  Blackgrass plant response rating: 35
blackgrass; [21]
  Plant response rating, Blackgrass: 60
blackgrass; [14]
  Plant response rating, Blackgrass: 45

## CCONC(=O)c1cc(CC)n(Cc2cccc(OC(F)(F)F)c2)n1 [Compound 72]
Corn [1]; [11]
  Corn plant response rating: 80
Corn [1]; [12]
  Corn plant response rating: 70
Galium [2]; Postemergence, 31 g ai/ha
  Galium plant response rating: 45
Galium [2]; postemergence, 62 g ai/ha
  Galium plant response rating: 70
Galium [2]; [21]
  Plant response rating, Galium: 80
Galium [2]; [14]
  Plant response rating, Galium: 70
Corn [3]
  Plant response rating (scale of 0 to 100), Corn: 75
Corn [3]; [22]
  Corn plant response rating: 30
Corn [3]; [23]
  Plant response rating, Corn: 45
Corn [3]; [17]
  Corn plant response rating: 60
crabgrass, large [4]; [11]
  Crabgrass, Large plant response rating: 90
crabgrass, large [4]; [12]
  Crabgrass, Large plant response rating: 80
Morningglory [10]; Postemergence, 31 g ai/ha
  Morningglory plant response rating: 0
Morningglory [10]; postemergence, 62 g ai/ha
  Morningglory plant response rating: 35
Morningglory [10]; [21]
  Plant response rating, Morningglory: 65
Morningglory [10]; [14]
  Plant response rating, Morningglory: 60
crabgrass, large [5]; Preemergence, 500 g ai/ha, 0 to 100 scale, 0 no effect, 100 complete control
  Crabgrass, Large plant response rating: 100
crabgrass, large [5]; [18]
  Crabgrass, Large plant response rating: 90
wheat; [19]
  Wheat plant response rating: 50
wheat; [20]
  Wheat plant response rating: 10
Galium [6]
  Plant response rating (scale of 0 to 100), Galium: 100
Galium [6]; [22]
  Galium plant response rating: 70
Galium [6]; [23]
  Plant response rating, Galium: 98
Galium [6]; [17]
  Galium plant response rating: 100
foxtail, giant [7]; [11]
  Foxtail, Giant plant response rating: 90
foxtail, giant [7]; [12]
  Foxtail, Giant plant response rating: 80
nutsedge, yellow
  Plant response rating (scale of 0 to 100), Nutsedge, Yellow: 85
nutsedge, yellow; [22]
  Nutsedge, Yellow plant response rating: 0
nutsedge, yellow; [23]
  Plant response rating, Nutsedge, Yellow: 40
nutsedge, yellow; [17]
  Nutsedge, Yellow plant response rating: 60
ryegrass, Italian; Preemergence, 250 g ai/ha
  Plant response rating (scale of 0 to 100), Ryegrass, Italian: 95
ryegrass, Italian; [22]
  Ryegrass, Italian plant response rating: 40
ryegrass, Italian; [23]
  Plant response rating, Ryegrass, Italian: 85
ryegrass, Italian; [17]
  Ryegrass, Italian plant response rating: 85
Morningglory [8]; [11]
  Morningglory plant response rating: 90
Morningglory [8]; [12]
  Morningglory plant response rating: 80
foxtail, giant [9]; Postemergence, 31 g ai/ha
  Foxtail, Giant plant response rating: 5
foxtail, giant [9]; postemergence, 62 g ai/ha
  Foxtail, Giant plant response rating: 5
foxtail, giant [9]; [21]
  Plant response rating, Foxtail, Giant: 15
foxtail, giant [9]; [14]
  Plant response rating, Foxtail, Giant: 5
blackgrass; Postemergence, 31 g ai/ha
  Blackgrass plant response rating: 5
blackgrass; postemergence, 62 g ai/ha
  Blackgrass plant response rating: 10
blackgrass; [21]
  Plant response rating, Blackgrass: 40
blackgrass; [14]
  Plant response rating, Blackgrass: 40
